≈ marks a conversion by molar mass, not a printed value.
How the values were obtained:
[1] = Solubility of the compound at pH 3 to 7.4 after 24 hrs; format: physicochemical; conditions: buffer; for solubility: pH 3, 24 h; for solubility at 24 h: pH 3
[2] = Inhibition of canonical Wnt pathway in human DBTRG-05-MG cells after 36 hrs by TCF-luciferase and TA-renilla dual-luciferase reporter assay; format: cell-based
[3] = molecular target: CYP3A4 (Homo sapiens, UniProt P08684); assay: Metabolic stability of in DMSO solution assessed as human CYP3A4-mediated drug degdaradtion by measuring compound remaining at 1 uM after 1 hr in presence of human CYP3A4 and NADPH; format: ADME; conditions: human CYP3A4 enzyme, read-out: Stability
[4] = Permeability of the compound by PAMPA; format: physicochemical; conditions: read-out: permeability
[5] = Homo sapiens, DBTRG-05MG, 36 h, read-out: IC50

Sequence of CYP3A4 (P08684 whole entry): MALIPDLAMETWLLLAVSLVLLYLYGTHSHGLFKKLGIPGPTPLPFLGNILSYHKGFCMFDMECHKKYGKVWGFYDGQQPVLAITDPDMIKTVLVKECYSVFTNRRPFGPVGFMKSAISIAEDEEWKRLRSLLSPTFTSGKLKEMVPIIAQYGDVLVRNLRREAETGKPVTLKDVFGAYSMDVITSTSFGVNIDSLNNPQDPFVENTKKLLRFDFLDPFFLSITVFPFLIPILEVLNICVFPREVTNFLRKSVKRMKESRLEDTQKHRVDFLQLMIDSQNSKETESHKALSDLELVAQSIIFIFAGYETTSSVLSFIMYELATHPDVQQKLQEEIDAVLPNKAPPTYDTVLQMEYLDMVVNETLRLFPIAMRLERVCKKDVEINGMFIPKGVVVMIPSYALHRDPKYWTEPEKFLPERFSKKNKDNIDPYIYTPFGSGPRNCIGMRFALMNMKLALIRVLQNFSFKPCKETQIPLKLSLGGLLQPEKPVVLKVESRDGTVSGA

| Structure (SMILES) | solubility [1] | IC50 [2, 5] | remaining at 1 h, 1 µM [3] | IC50 [2] | solubility at 24 h [1] | Papp [4] |
| --- | --- | --- | --- | --- | --- | --- |
| Cc1cc(-c2cnc(N3CCOCC3)nc2-c2ccc(C)s2)on1 | Insoluble | 8.5 µM | < 20% |  |  |  |
| Cc1cc(-c2cnc(N3CCCC3)nc2-c2ccc(C)s2)on1 | Insoluble |  | < 20% | Not Active |  |  |
| Cc1cc(-c2cnc(N3CCN(C)CC3)nc2-c2ccc(C)s2)on1 |  |  | 51% | Not Active | 11 µM (≈ 3.91 µg/mL) | > 10 ×10⁻⁶ cm/s |
| Cc1cc(-c2cnc(N3CC(C)OC(C)C3)nc2-c2ccc(C)s2)on1 (stereo not drawn) | Insoluble | 14.1 µM | < 20% |  |  |  |
| Cc1cc(-c2cnc(NC(C)C)nc2C2CCN(C(=O)c3ccc(C)s3)CC2)on1 | Insoluble | 8.05 µM | < 20% |  |  |  |
| Cc1cc(-c2cnc(NCc3cccnc3)nc2-c2ccc(C)s2)on1 |  | 17.6 µM | < 20% |  | 1 µM (≈ 0.363 µg/mL) |  |
| Cc1cc(-c2cnc(NCc3ccccn3)nc2-c2ccc(C)s2)on1 |  | 13.9 µM | < 20% |  | 1 µM (≈ 0.363 µg/mL) |  |
| Cc1cc(-c2cnc(NC(C)C)nc2-c2ccc(C)s2)on1 | Insoluble |  | 20% | Not Active |  |  |
| Cc1cc(-c2cnc(NCc3ccc(F)cc3)nc2-c2ccc(C)s2)on1 | Insoluble |  | 29% | Not Active |  |  |
| COCCNc1ncc(-c2cc(C)no2)c(-c2ccc(C)s2)n1 | Insoluble |  | 27% | Not Active |  | > 10 ×10⁻⁶ cm/s |
| CC(=O)N1CCC(c2nc(N3CCCC3)ncc2-c2cc(C)no2)CC1 |  |  | 59% | Not Active | 207 µM (≈ 73.6 µg/mL) | > 10 ×10⁻⁶ cm/s |
| CC(=O)N1CCC(c2nc(N3CCN(C)CC3)ncc2-c2cc(C)no2)CC1 |  |  | 100% | Not Active | 225 µM (≈ 86.5 µg/mL) | 2 ×10⁻⁶ cm/s |
| CC(=O)N1CCC(c2nc(N3CCOCC3)ncc2-c2cc(C)no2)CC1 |  | 10.6 µM | 75% |  | 211 µM (≈ 78.4 µg/mL) | > 10 ×10⁻⁶ cm/s |
| CC(=O)N1CCC(c2nc(NCc3cccnc3)ncc2-c2cc(C)no2)CC1 |  |  | < 20% |  | 238 µM (≈ 93.4 µg/mL) | 2 ×10⁻⁶ cm/s |
| CC(=O)N1CCC(c2nc(NCc3ccccn3)ncc2-c2cc(C)no2)CC1 |  |  | 27% | Not Active | 221 µM (≈ 86.7 µg/mL) | 2 ×10⁻⁶ cm/s |
| CC(=O)N1CCC(c2nc(NC(C)C)ncc2-c2cc(C)no2)CC1 |  |  | 75% | Not Active | 224 µM (≈ 76.9 µg/mL) | > 10 ×10⁻⁶ cm/s |
| CC(=O)N1CCC(c2nc(NCc3ccc(F)cc3)ncc2-c2cc(C)no2)CC1 | Insoluble |  | < 20% | Not Active |  | > 10 ×10⁻⁶ cm/s |
| COCCNc1ncc(-c2cc(C)no2)c(C2CCN(C(C)=O)CC2)n1 |  |  | 84% | Not Active | 233 µM (≈ 83.7 µg/mL) | 2 ×10⁻⁶ cm/s |

From ChEMBL document CHEMBL3608302, “Identification of 2-aminopyrimidine derivatives as inhibitors of the canonical Wnt signaling pathway” (Bioorg Med Chem, 2015)
